In series [1] the test system is multiple myeloma (RPMI8226, MM1S, ARP-GL, CAG-GL, OPM2-GL, SKO-007-GL, U266-GL, MM1R cells). The series can be described thus: toxicity by alamarBlue, multiple myeloma cell lines. Format: cell-based, human. The following applies: mean of 8 cell lines. The protocol: The toxicity of compounds 42-45 and their IC50 was determined on a panel of human tumor cell lines of multiple myeloma (RPMI8226, MM1S, MM1R, ARP-GL, CAG-GL, OPM2-GL, SKO-007-GL, U266-GL,) and lung cancer (H299-GL, H522-GL, H647-GL, A549-GL, A549-GL, HI993, H1075-GL, HI373, H17030) origin. Tumor cells were dissociated into a single-cell suspension by Trypsin/Collagenase IV treatment and 500 cells per well were aliquoted into each well of 384 microwell plates in 50 μl of RPMI medium with 10% FCS. Compounds 42-45 were dissolved in DMSO and serially diluted in RPMI medium plus 10% FCS and added (1 mM to 1 nM) to quadruplicate wells containing tumor cells. Dilutions of DMSO without compound were used as a control. After 18 hrs or 2 days, the cultures were pulsed with 6 μl of alamarBlue® (Invitrogen Inc. Grand Island, N.Y.) and incubated overnight. The alamarBlue® provides a cell growth indicator based on detection of metabolic activity. The assay system incorporates an oxidation-reduction indicator that both fluoresces and changes color in response to chemical reduction of growth medium resulting from cell growth. The fluorescence intensity was measured using a Synergy H1 Microplate Reader (Biotek Inc, Winooski, VT) and a dose-response curve established for IC50 determination.

A further series relates to A549. The series can be described thus: transwell migration (modified Boyden chamber, serum gradient). The class given is cell-based. The conditions noted are these: Homo sapiens, 12 hour migration, mean +/- SEM of three experiments, read-out: IC50, inhibition of transwell migration. The protocol:
(§1) Migration assay: Cancer cell chemotaxis was performed towards a serum gradient in a modified Boyden chamber consisting of a cell culture insert (6.4 mm diameter, 8-μm pore polyethylene tetraphtalate membrane, [Becton Dickenson]) seated in each well of a 24-well companion plate (Becton Dickinson). Briefly, cancer cells were grown as subconfluent monolayer cultures then starved for 36 hours in serum-free M5 medium. After detachment and dissociation with 5 mM EDTA, single-cell suspensions were prepared by filtration through a 35 μm mesh cell strainer (Becton Dickinson). Cells were counted and a total of 10^5 cells suspended in serum-free medium were seeded into the upper chamber of an insert, then positioned in a 24-well plate, containing medium with or without 10% serum. When used, drugs or DMSO (vehicle) were added to the medium at 0.2% in both chambers. Migration assays were carried out for 12 hours in a humidified incubator at 37° C. with 5% CO2. Cells were then fixed with 3.7% formaldehyde, permeabilized with ice cold methanol and stained with a 0.2% Crystal violet solution. Non-migratory cells on the upper side of the insert were removed with a cotton swab. For quantification, three randomly selected fields on the lower side of the insert were photographed at 4× and 20× magnification using computer-assisted microscopy, and analyzed with CellProfiler2.0 cell image analysis software). The migration in response to the test condition was calculated relative to the DMSO vehicle control.
(§2) This assay provided reproducibly robust data, allowing dose-response studies to be carried out to determine the half maximal inhibitory concentration (IC50). […] Because we noticed a mild toxicity and effects on cell proliferation in the millimolar range, experiments with CME and ME at 1 mM or more were not included for the IC50 calculation.
(§3) Lung Cancer cell lines chemotaxis was performed in cell culture inserts after serum starvation and an overnight preincubation with an incremental logarithmic scale of drug concentration (ME and CME from 10^−3 to 10^−10M). Cancer cell migration in response to a serum gradient was measured after a 12 hour-long incubation in presence of different concentrations of ME or CME in both upper and lower chamber (three wells at each dose). Cells were then fixed and stained with Crystal violet, and photographed. […] Data are expressed as the mean+/−SEM of three independent experiments. Each experiment was performed in triplicate.

Another series has as its system H299. Described as above. The following applies: Homo sapiens, 12 hour migration, mean +/- SEM of three experiments, read-out: IC50, inhibition of transwell migration. The class given is cell-based. The protocol:
as §1, §2, §3

The test system of the next series is H1975. Described as above. The class given is cell-based. The conditions noted are these: Homo sapiens, NCI-H1975, 12 hour migration, mean +/- SEM of three experiments, read-out: IC50, inhibition of transwell migration. The protocol:
as §1, with “When used, drugs or DMSO (vehicle) were added to the medium at 0.2% in both chambers. Migration assays were carried out for 12 hours in a humidified incubator at 37° C. with 5% CO2. Cells were then fixed with 3.7% formaldehyde, permeabilized with ice cold methanol and stained with a 0.2% Crystal violet solution. Non-migratory cells on the upper side of the insert were removed with a cotton swab.” left out, “control. […]” for “control.”
Lung Cancer cell lines chemotaxis was performed in cell culture inserts after serum starvation and an overnight preincubation with an incremental logarithmic scale of drug concentration (ME and CME from 10^−3 to 10^−10M). […] Data are expressed as the mean+/−SEM of three independent experiments. […]

Another series deals with A549 cells. The series can be described thus: in vitro wound-healing (scratch) assay. Format: cell-based, human. The following applies: for migration in response to a scratch wound: 100 μM. The protocol: This Example evaluates the anti-metastatic properties of new migrastatin analogs by assessing their ability to inhibit in vitro cancer cell migration in a wound-healing assay and their chemotaxis in a transwell migration assay. […] Similar results were obtained with a panel of human lung cancer cell lines (H1975, H647, H522, H1703, data not shown).
For the results depicted in FIG. 3, A549 cancer cells were grown as nearly confluent monolayer culture and then starved overnight in medium containing 0.5% FCS. Cell monolayers were then scratched using pipette tip, photographed, and incubated with a 6 log-scaled concentration range of ME and CME from 10^−3 to 10^−8M, with or without 2% FCS. After 12 H, areas were fixed, stained and photographed using computer-assisted microscopy. Micrographs (4× magnification) are presented, showing the A549 cancer cell migration across the scratches in absence of serum (no migration), presence of serum (migration), and in the presence of serum plus CME or ME at 100 μM or 100 nM.
Wound-Healing Assay: Cancer cells migration was measured using an “in vitro wound-healing assay” (or scratch assay) performed in a 12-well plate (Becton Dickinson). Briefly, cancer cells were seeded at a density of 5-10×10^4 cells per well, grown to near confluent monolayers in 10% serum-supplemented M5 medium and then starved overnight in a low serum medium (0.5% FCS). Perpendicular wounds were scratched through the cell monolayer using a sterile 200 μL pipette tip. The cells were then washed twice very gently using PBS and the scratched areas were photographed at 4× and 20× magnification using computer-assisted microscopy. […] Each well was photographed at 4× and 20× magnification and the pictures analyzed with CellProfiler2.0 cell image analysis software as previously described, (Carpenter A E, Jones T R, Lamprecht M R, Clarke C, Kang I H et al. (2006), Genome Biology 7(10):R100). The migration in response to the test condition was calculated as cell coverage of the original cell-free zone and related to DMSO vehicle control.

Take `CO[C@H]1/C=C/CCCCCOC/C(C)=C\[C@@H](C)[C@@H]1OCC(=O)O` [CME, Carboxymethyl migraether]: the “Estimated lethal doses (LD50)” value is 503.6 µM in series [1] (18 h exposure) and 452.9 µM in series [1] (48 h exposure). Besides, the IC50 with A549 was found to be 660 ± 200 nM; in the series on H299, 5020 ± 1130 nM; in the series on H1975 it was 510 ± 420 nM. Further, the “migration in response to a scratch wound” value in the series with A549 cells is listed as “almost completely blocked”. The compound also displayed an inhibition of migration with A549 cells (submicromolar concentrations) of 32%.
With `CO[C@H]1/C=C/CCCCCOC/C(C)=C\[C@@H](C)[C@@H]1O` [ME, migrastatin ether], the “Estimated lethal doses (LD50)” value in series [1] (18 h exposure) was 794.8 µM; in series [1] (48 h exposure), 881.7 µM. Also, the IC50 came to 1930 ± 410 nM with A549, 8200 ± 1750 nM with H299 and 1510 ± 690 nM in the series with H1975. Moreover, the “migration in response to a scratch wound” value in the series on A549 cells is on record as “almost completely blocked”.
